# Experimental data taken from publication PMC7436000, “The Spectrum of Design Solutions for Improving the Activity-Selectivity Product of Peptide Antibiotics against Multidrug-Resistant Bacteria and Prostate Cancer PC-3 Cells” (Molecules, 2020).
# Peptide text beside a SMILES is read from it.
# Assays:
# E. coli clin. isolate = type: cell-based, Escherichia coli; settings: clin. isolate
# Procedure, shortened: (§1)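 Broth microdilution against mid-exponential cells at 5 × 10^5 CFU/mL; clinical isolates are multidrug-resistant, tested in Mueller Hinton medium, while E. coli MG1655 was grown in LB. Peptide was serially 2-fold diluted from 64 μM to 0.0625 μM and incubated 18 h to 24 h at 37 °C. MIC = lowest concentration without visible growth.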
# P. aerug. clin. isolate = type: cell-based, Pseudomonas aeruginosa
# Procedure, shortened: as §1
# K. pneum. clin. isolate = type: cell-based, Klebsiella pneumoniae
# Procedure, shortened: as §1
# [1] = test system: Acinetobacter baumannii (ATCC 19606); type: cell-based; settings: ATCC 19606
# Procedure, shortened: as §1
# [2] = test system: Escherichia coli (ATCC 25922); type: cell-based; settings: ATCC 25922
# Procedure, shortened: as §1
# Escherichia coli MG1655 = type: cell-based; settings: MG1655
# Procedure, shortened: as §1
# [3] = test system: Klebsiella pneumoniae (ATCC 13883); type: cell-based; settings: ATCC 13883
# Procedure, shortened: as §1
# [4] = test system: Pseudomonas aeruginosa (ATCC 27853); type: cell-based; settings: ATCC 27853
# Procedure, shortened: as §1
# [5] = test system: Staphylococcus aureus (ATCC 29213); type: cell-based; settings: ATCC 29213
# Procedure, shortened: as §1
# A. baum. clin. isolate = type: cell-based, Acinetobacter baumannii
# Procedure, shortened: as §1
# S. aureus clin. isolate = type: cell-based, Staphylococcus aureus; settings: clin. isolate
# Procedure, shortened: as §1
# human erythrocytes [6] = assay: Hemolysis of human erythrocytes; type: cell-based; settings: 1 h
# [7] = test system: human primary dermal fibroblasts; type: cell-based; settings: 24 h
# [8] = test system: PC-3 prostate cancer cell line; type: cell-based, human; settings: 24 h
# human erythrocytes [9] = assay: Hemolysis of human erythrocytes; type: cell-based; settings: 24 h
structure (smiles),measurement,setting,value
CC[C@H](C)[C@H](NC(=O)CN)C(=O)NCC(=O)N[C@@H](CCCCN)C(=O)N[C@@H](Cc1ccccc1)C(=O)N[C@@H](CC(C)C)C(=O)N[C@@H](CCCCN)C(=O)N[C@@H](CCCCN)C(=O)N[C@@H](C)C(=O)N[C@@H](CCCCN)C(=O)N[C@@H](CCCCN)C(=O)N[C@@H](Cc1ccccc1)C(=O)NCC(=O)N[C@@H](CCCCN)C(=O)N[C@@H](C)C(=O)N[C@@H](Cc1ccccc1)C(=O)N[C@H](C(=O)N[C@@H](CC(C)C)C(=O)N[C@H](C(=O)N[C@@H](CC(C)C)C(=O)N[C@@H](CCCCN)C(=O)N[C@@H](CCCCN)C(N)=O)[C@@H](C)CC)C(C)C [PEXA] (H-GIGKFLKKAKKFGKAFVLILKK-NH2),MIC (E. coli clin. isolate),E. coli clin. isolate,4 µM
same,MIC (P. aerug. clin. isolate),P. aerug. clin. isolate,16 µM
same,MIC (K. pneum. clin. isolate),K. pneum. clin. isolate,4 µM
same,MIC (A. baum. ATCC 19606),[1],1 to 2 µM
same,MIC (E. coli ATCC 25922),[2],0.5 to 1 µM
same,MIC (E. coli MG1655),Escherichia coli MG1655,4 µM
same,MIC (K. pneum. ATCC 13883),[3],2 µM
same,MIC (P. aerug. ATCC 27853),[4],4 µM
same,MIC (S. aureus ATCC 29213),[5],0.5 µM
same,MIC (A. baum. clin. isolate),A. baum. clin. isolate,1 to 2 µM
same,MIC (S. aureus clin. isolate),S. aureus clin. isolate,2 µM
same,HC10,human erythrocytes [6],1.6 µM
same,HC20,human erythrocytes [6],7 µM
same,IC50,[7],12 µM
same,(TI/ IC50C) vs. MP1,[8],18
same,IC50,[8],4 µM
same,TI (HC20/IC20C),[8],6.7
same,TI (IC50F/IC50C),[8],3
same,TI/ IC50C,[8],0.75
same,HC50 * (extrapolated),human erythrocytes [9],520 * µM
